Results reported in patent publication EP1268431B1 (Wyeth, priority 2000, dated 2001).
pIC50: −log10 of the molar value. Where “and” joins values, the source holds several entries; their conditions need not be identical. Equal values may be shown once. Read-outs that look alike come from different tables or passages of the source.

Tests used:
[1] = system: human adenocarcinoma cell line CaCo-2; assay: Cell Based Screen for Inhibitors of Raf Kinase, CaCo-2 cells; details: Homo sapiens, Caco-2, 96 h, CaCo-2, four days, SRB
Description: (§1) • Cell Lines: Human adenocarcinoma cell line LoVo which is known to be growth inhibited by low nM concentrations of a reference standard inhibitor of Ras and human adenocarcinoma cell line CaCo-2, which is known to be growth resistant to the same reference compound. • Cell Media: RPMI 1640 with 10% Fetal Bovine Serum supplemented with L-glutamine and Pennicilin/Streptomycin. • Compounds: Supplied usually as a 10 mM stock in 100% DMSO. • Normal Saline: 150 mM NaCl • Trichloroacetic Acid (TCA): 50% (w/v) in water • Sulforhodamine B (SRB): 0.4% (w/v) in 1% Acetic Acid • Tris Base: 10 mM in water
(§2) Cells are plated at 2000 cells per well for cell line LoVo and 1500 cells for cell line CaCo-2 in 96 well plates. Cells are plated in media (200 µl) and allowed to adhere overnight at 37° C. At 24 hours post plating, compounds are added directly at a volume of 0.5 µl. For the qualitative screen (compounds screened at 25 µM) compound is added directly to cells. For the quantitative screen, compound is first diluted in DMSO to generate concentrations of compound or reference standard of: 1, 5, 10 and 25 µM. It is advisable to make the dilutions in an identical 96 well plate so that compounds may be added using a multichannel micropipettor set at 0.5 µl. The cells are then incubated for four days after which the media is removed using a 12 well manifold by first tipping the plate forward at a 45 degree angle and then inserting the manifold in an upright orientation to prevent the tips of the manifold from disturbing cells at the bottom of the plate. 200 µl of normal saline is then added to each well using an 8 well multichannel pipettor, followed by the careful addition of 50 µl of 50% TCA. The plates are then incubated for 2 hours at 4 ° C, after which the supernatant is removed using the same technique as above and the plated washed twice with 200 µl water. The plates are then air dried and 50 µl of SRB stock solution is carefully added so that the entire bottom of each well is covered. This again may be used using an 8 well multichannel pipettor. The SRB is incubated with fixed cells for 15 minutes at room temperature after which the SRB is removed with the manifold as described above and the plates washed twice with 350 µl of 1% acetic acid per well each time.The plates are then air dried after which the bound SRB is released from protein by the addition of 200 µl of Tris base. Resolubilizing the SRB is aided by placing the plates on a rotator for 15-30 minutes. The absorbance of each well is determined at 550 or 562 nm using a microtiter plate reader.
(§3) Each compound or dilution thereof is performed in triplicate. Outliers are identified by visual inspection of the data. Each plate should have a "0" control (vehicle only).
(§4) Quantitative Assay: A standard curve is constructed by plotting the concentration of compound against the average absorbance calculated at that concentration. A curve is plotted and the concentration at which the curve passes through the 50% the absorbance mark seen in the "0" control well is the IC50 calculated for that compound. […]

[2] = system: Human adenocarcinoma cell line LoVo; assay: Cell Based Screen for Inhibitors of Raf Kinase, LoVo cells; details: four days, SRB
Description: as §1, §2, §3, §4

c-Src = biological target: T1, c-Src (Homo sapiens, UniProt P12931); assay: c-Src Kinase Assay (ELISA format); type: biochemical
T1 construct: purchased Upstate Biotechnologies
Procedure, shortened: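 Partially purified Src preincubated with compound and biotinylated peptide 10 min at 30 °C in Tris-HCl pH 7.5 with MgCl2, EGTA, vanadate; ATP-started reaction ran 1 h at 30 °C, EDTA-stopped. Phosphopeptide captured on streptavidin, detected by HRP anti-phosphotyrosine; % inhibition = (1 − Abs/Abs(max)) × 100.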

[3] = system: Rat2 fibroblasts stably transformed with a plasmid containing a CMV promotor controlled v-Src/Hu c-Src fusion gene; assay: Anchorage Independent Src-transformed Fibroblast Proliferation Assay
[4] = Rattus norvegicus, Rat2, 120 h, read-out: anch-indep src-tx fib IC50, suspension growth, MTS on Day 5
[5] = read-out: anch-indep src-tx fib IC50, suspension growth, MTS on Day 5

T1 sequence (P12931 whole entry, species assumed): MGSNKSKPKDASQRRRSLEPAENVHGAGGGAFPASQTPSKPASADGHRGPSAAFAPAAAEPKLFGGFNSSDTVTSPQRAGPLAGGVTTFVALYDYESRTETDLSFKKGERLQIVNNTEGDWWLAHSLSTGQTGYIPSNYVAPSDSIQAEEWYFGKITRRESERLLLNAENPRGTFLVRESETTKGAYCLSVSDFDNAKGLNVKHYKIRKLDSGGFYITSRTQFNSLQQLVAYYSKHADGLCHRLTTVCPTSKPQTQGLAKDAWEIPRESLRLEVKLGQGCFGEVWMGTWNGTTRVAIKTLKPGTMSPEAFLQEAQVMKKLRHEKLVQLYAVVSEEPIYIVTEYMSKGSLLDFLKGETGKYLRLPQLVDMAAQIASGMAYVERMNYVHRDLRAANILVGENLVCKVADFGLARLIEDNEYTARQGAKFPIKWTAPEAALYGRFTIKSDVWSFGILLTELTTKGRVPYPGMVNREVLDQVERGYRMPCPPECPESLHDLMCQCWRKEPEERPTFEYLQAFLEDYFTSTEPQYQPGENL

| SMILES | pIC50 ([2]; Homo sapiens, 96 h) | pIC50 (c-Src) | pIC50 [3, 4] | also measured |
| --- | --- | --- | --- | --- |
| CCN1CCN(c2ccc(-c3ccc4c(Nc5ccc(Sc6nccn6C)c(Cl)c5)c(C#N)cnc4c3)nc2)CC1 [Example 108, 4-({3-Chloro-4-[(1-methyl-1H-imidazol-2-yl)sulfanyl]phenyl}amino)-7-[5-(4-ethyl-1-piperazinyl)-2-pyridinyl]-3-quinolinecarbonitrile] | 8.59 | – | – | pIC50 [1]: 6.41 |
| COc1cc(Nc2c(C#N)cnc3cc(-c4ccc(N5CCOCC5)cc4)ccc23)c(Cl)cc1Cl [Example 67, 4-(2,4-Dichloro-5-methoxyanilino)-7-[4-(4-morpholinyl)phenyl]-3-quinolinecarbonitrile] | – | 8.52 and 8.31 | 6.96 | – |
| COc1cc(Nc2c(C#N)cnc3cc(-c4ccc(CN(C)C)cc4)ccc23)c(Cl)cc1Cl [Example 86, 4-(2,4-Dichloro-5-methoxyanilino)-7-{4-[(dimethylamino)methyl]phenyl}-3-quinolinecarbonitrile] | – | 8.96 | 6.68 | – |
| COc1cc(Nc2c(C#N)cnc3cc(-c4ccc(CN5CCN(CCO)CC5)o4)ccc23)c(Cl)cc1Cl [Example 75, 4-(2,4-Dichloro-5-methoxyanilino)-7-(5-{[4-(2-hydroxyethyl)-1-piperazinyl]methyl}-2-furyl)-3-quinolinecarbonitrile] | – | 7.62 | 6.54 | – |
| COc1cc(Nc2c(C#N)cnc3cc(-c4ccc(C=O)n4C)ccc23)c(Cl)cc1Cl [Example 69, 4-(2,4-Dichloro-5-methoxyanilino)-7-(5-formyl-1-methyl-1H-pyrrol-2-yl)-3-quinolinecarbonitrile] | – | 6.96 | < 5.00 | – |
| COc1ccc(/C=C/c2ccc3c(Nc4cc(OC)c(Cl)cc4Cl)c(C#N)cnc3c2)cc1 [Example 54, 4-(2,4-Dichloro-5-methoxyanilino)-7-[(E)-2-(4-methoxyphenyl)ethenyl]-3-quinolinecarbonitrile] | – | 7.21 | < 5.00 | – |
| CCN1CCN(CCc2ccc(-c3ccc4c(Nc5cc(OC)c(Cl)cc5Cl)c(C#N)cnc4c3)cc2)CC1 [Example 32, 4-(2,4-Dichloro-5-methoxyanilino)-7-{4-[2-(4-ethyl-1-piperazinyl)ethyl]phenyl}-3-quinolinecarbonitrile] | – | 8.57 | 5.70 | pIC50 [3, 5]: 5.72 |
| COc1cc(Nc2c(C#N)cnc3cc(-c4ccc(CNCCc5ccccn5)o4)ccc23)c(Cl)cc1Cl [Example 74] | – | 7.40 | – | pIC50 [3, 5]: 5.85 |
| CCOC(=O)C1CCCCN1Cc1ccc(-c2ccc3c(Nc4cc(OC)c(Cl)cc4Cl)c(C#N)cnc3c2)cc1 (centres unmarked) [Example 145, ethyl 1-{4-[3-cyano-4-(2,4-dichloro-5-methoxyanilino)-7-quinolinyl]benzyl}-2-piperidinecarboxylate] | – | – | < 5.00 | inhibition at 0.01 µM (c-Src; at 10 nM): 17% |
| CN(C)CC#Cc1ccc2c(Nc3ccc(Cl)cc3Cl)c(C#N)cnc2c1 [Example 15, 4-(2,4-Dichloroanilino)-7-[3-(dimethylamino)-1-propynyl]-3-quinolinecarbonitrile] | – | 7.20 | < 5.00 | – |
| COc1cc(Nc2c(C#N)cnc3cc(-c4ccc(CN5CCOCC5)n4C)ccc23)c(Cl)cc1Cl [Example 70, 4-(2,4-Dichloro-5-methoxyanilino)-7-[1-methyl-5-(4-morpholinylmethyl)-1H-pyrrol-2-yl]-3-quinolinecarbonitrile] | – | 7.60 | 5.22 | – |
| COc1cc(Nc2c(C#N)cnc3cc(-n4cccc4CN(C)C)ccc23)c(Cl)cc1Cl [Example 93] | – | 6.21 and 6.17 | – | pIC50 [3, 5]: < 5.00 |
| N#Cc1cnc2cc(-c3csc(CN4CCOCC4)c3)ccc2c1Nc1ccc(Cl)cc1Cl [Example 25, 4-(2,4-Dichloroanilino)-7-[5-(4-morpholinylmethyl)-3-thienyl]-3-quinolinecarbonitrile] | – | 8.44 and 8.22 and 8.31 | 5.89 | pIC50 [3, 5]: 6.03 |

The next lines start with results.

| pIC50 ([2]; Homo sapiens, 96 h) | pIC50 (c-Src) | SMILES | pIC50 [3, 4] | also measured |
| --- | --- | --- | --- | --- |
| 8.17 | – | Cn1ccnc1Sc1ccc(Nc2c(C#N)cnc3cc(-c4ccc(CN5CCOCC5)o4)ccc23)cc1Cl [Example 154, 4-{3-chloro-4-[(1-methyl-1H-imidazol-2-yl)sulfanyl]anilino}-7-[5-(4-morpholinylmethyl)-2-furyl]-3-quinolinecarbonitrile] | – | pIC50 [1]: < 6.00 |
| 7.40 | – | COc1cc2c(Nc3ccc(Sc4nccn4C)c(Cl)c3)c(C#N)cnc2cc1-c1ccc(CN2CCOCC2)cc1 [Example 123, 4-{3-Chloro-4-[(1-methyl-1H-imidazol-2-yl)sulfanyl]anilino}-6-methoxy-7-[4-(4-morpholinylmethyl)phenyl]-3-quinolinecarbonitrile] | – | pIC50 [1]: 5.82 |
| 7.34 | – | CCOC(=O)C1CCN(c2ccc(-c3ccc4c(Nc5ccc(Sc6nccn6C)c(Cl)c5)c(C#N)cnc4c3)cn2)CC1 [Example 213, ethyl 1-{5-[4-({3-chloro-4-[(1-methyl-1H-imidazol-2-yl)sulfanyl]phenyl}amino)-3-cyano-7-quinolinyl]-2-pyridinyl}-4-piperidinecarboxylate] | – | pIC50 [1]: < 6.00 |
| 8.24 | – | Cn1ccnc1Sc1ccc(Nc2c(C#N)cnc3cc(-c4ccc(N5CCC(O)CC5)nc4)ccc23)cc1Cl [Example 214, 4-({3-chloro-4-[(1-methyl-1H-imidazol-2-yl)sulfanyl]phenyl}amino)-7-[6-(4-hydroxy-1-piperidinyl)-3-pyridinyl]-3-quinolinecarbonitrile] | – | pIC50 [1]: < 6.00 |
| 8.70 | – | Cn1ccnc1Sc1ccc(Nc2c(C#N)cnc3cc(-c4ccc(N5CCOCC5)nc4)ccc23)cc1Cl [Example 190, 4-{3-chloro-4-[(1-methyl-1H-imidazol-2-yl)sufanyl]anilino}-7-[6-(4-morpholinyl)-3-pyridinyl]-3-quinolinecarbonitrile] | – | – |
| 8.10 | – | CCN1CCN(Cc2ccc(-c3ccc4c(Nc5ccc(Sc6nccn6C)c(Cl)c5)c(C#N)cnc4c3)nc2)CC1 [Example 171, 4-{3-chloro-4-[(1-methyl-1H-imidazol-2-yl)sulfanyl]anilino}-7-{5-[(4-ethyl-1-piperazinyl)methyl]-2-pyridinyl}-3-quinolinecarbonitrile] | – | pIC50 [2]: 8.30 and > 8.30 |
| – | 8.68 | COc1cc(Nc2c(C#N)cnc3cc(-c4csc(CN5CCC(O)CC5)c4)ccc23)c(Cl)cc1Cl [Example 192, 4-(2,4-dichloro-5-methoxyanilino)-7-{5-[(4-hydroxy-1-piperidnyl)methyl]-3-thienyl}-3-quinolinecarbonitrile] | 6.77 | – |
| 7.40 | – | Cn1ccnc1Sc1ccc(Nc2c(C#N)cnc3cc(-c4cc(CN5CCOCC5)c(CN5CCOCC5)s4)ccc23)cc1Cl [Example 169, 7-[4,5-bis(4-morpholinylmethyl)-2-thienyl]-4-{3-chloro-4-[(1-methyl-1H-imidazol-2-yl)sulfanyl]anilino}-3-quinolinecarbonitrile] | – | pIC50 [2]: 7.33 |
| – | 7.34 | COc1cc(Nc2c(C#N)cnc3cc(-c4cnc(C=O)n4C)c(OC)cc23)c(Cl)cc1Cl [Example 228, 4-(2,4-dichloro-5-methoxyanilino)-7-(2-formyl-1-methyl-1H-imidazol-5-yl)-6-methoxy-3-quinolinecarbonitrile] | < 5.00 | – |
| – | 8.15 | COc1cc(Nc2c(C#N)cnc3cc(-c4ccc(CN5CCOCC5)c(CN5CCOCC5)c4)ccc23)c(Cl)cc1C [Example 133, 7-[3,4-bis(4-morpholinylmethyl)phenyl]-4-(2-chloro-5-methoxy-4-methylanilino)-3-quinolinecarbonitrile] | 6.14 | – |
